Several values for one entry are separate records, joined by “and”; a condition that tells them apart may be missing. Equal entries are not always repeated. Inconclusive results and toxic doses are left out. Rule as the data show it: active = T/C of 150% or more; inactive = T/C below 125%.
Tested on: L1210 leukemia ip in BDF1 mice, survival T/C
Test: NCI In Vivo Anticancer Drug Screen. Data for tumor model L1210 Leukemia (intraperitoneal) in B6D2F1 (BDF1) mice
Conditions: endpoint: mean survival time, higher = longer survival
Outline: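 Transplanted-tumor mice were given test agent; controls received vehicle only. Survival readings from the two groups were divided (treated over control).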

[1] = dose: 6.25 mg/kg/injection, schedule: Q01DX009 (ip), vehicle: saline
[2] = dose: 12.5 mg/kg/injection, schedule: Q01DX009 (ip), vehicle: saline
[3] = dose: 25.0 mg/kg/injection, schedule: Q04DX003 (ip), vehicle: saline with Tween-80
[4] = dose: 100.0 mg/kg/injection, schedule: Q01DX001 (ip), vehicle: acetone
[5] = dose: 200.0 mg/kg/injection, schedule: Q01DX001 (ip), vehicle: acetone
[6] = dose: 100.0 mg/kg/injection, schedule: Q04DX003 (ip), vehicle: saline with Tween-80
[7] = dose: 200.0 mg/kg/injection, schedule: Q04DX003 (ip), vehicle: saline with Tween-80
[8] = dose: 400.0 mg/kg/injection, schedule: Q04DX003 (ip), vehicle: saline with Tween-80
[9] = dose: 50.0 mg/kg/injection, schedule: Q01DX001 (ip), vehicle: saline
[10] = dose: 100.0 mg/kg/injection, schedule: Q01DX009 (ip), vehicle: saline with Tween-80
[11] = dose: 200.0 mg/kg/injection, schedule: Q01DX009 (ip), vehicle: saline with Tween-80
[12] = dose: 100.0 mg/kg/injection, schedule: Q04DX003 (ip), vehicle: acetone
[13] = dose: 200.0 mg/kg/injection, schedule: Q04DX003 (ip), vehicle: acetone
[14] = dose: 400.0 mg/kg/injection, schedule: Q04DX003 (ip), vehicle: acetone
[15] = dose: 50.0 mg/kg/injection, schedule: Q04DX003 (ip), vehicle: saline
[16] = dose: 100.0 mg/kg/injection, schedule: Q04DX003 (ip), vehicle: saline
[17] = dose: 200.0 mg/kg/injection, schedule: Q04DX003 (ip), vehicle: saline
[18] = dose: 100.0 mg/kg/injection, schedule: Q04DX002 (ip), vehicle: saline with Tween-80
[19] = dose: 200.0 mg/kg/injection, schedule: Q04DX002 (ip), vehicle: saline with Tween-80
[20] = dose: 400.0 mg/kg/injection, schedule: Q04DX002 (ip), vehicle: saline with Tween-80
[21] = dose: 100.0 mg/kg/injection, schedule: Q04DX002 (ip), vehicle: Klucel (hydroxypropylcellulose) (HPC)
[22] = dose: 200.0 mg/kg/injection, schedule: Q04DX002 (ip), vehicle: Klucel (hydroxypropylcellulose) (HPC)
[23] = dose: 400.0 mg/kg/injection, schedule: Q04DX002 (ip), vehicle: Klucel (hydroxypropylcellulose) (HPC)
[24] = dose: 100.0 mg/kg/injection, schedule: Q01DX009 (ip), vehicle: Klucel (hydroxypropylcellulose) (HPC)

Measured: T/C

C/C(CCCCl)=N/NC(N)=S
inactive: [1] 98 % of control | dose: 6.25 mg/kg/injection, schedule: Q04DX003 (ip), vehicle: saline with Tween-80 98 % of control | [2] 107 % of control | dose: 12.5 mg/kg/injection, schedule: Q04DX003 (ip), vehicle: saline with Tween-80 92 % of control | [3] 90 % of control | [4] 100 % of control | [5] 90 % of control

O=C(/C=C/c1ccc([N+](=O)[O-])cc1)c1ccc(Cl)cc1
inactive: [6] 104 % of control | [7] 94 % of control | [8] 91 % of control

CCCCCCCC/C=C\CCCCCCCCNC(C)=O
inactive: [6] 101 % of control | [7] 103 % of control | [8] 98 % of control

NC(N)=N/N=C/c1nccc2ccccc12
inactive: [9] 102 % of control | dose: 100.0 mg/kg/injection, schedule: Q01DX001 (ip), vehicle: saline 102 % of control

CCNC(=O)N(Cc1ccccc1)Cc1ccccc1
inactive: [10] 98 % of control | [11] 93 % of control

Clc1ncnc2c1nnn2/N=C/c1ccccc1
inactive: dose: 15.0 mg/kg/injection, schedule: Q01DX Z (ip), vehicle: carboxymethylcellulose (CMC) 95 % of control | dose: 20.0 mg/kg/injection, schedule: Q01DX Z (ip), vehicle: carboxymethylcellulose (CMC) 91 % of control

C=CC[As](=O)(O)O
inactive: [3] 98 % of control | dose: 50.0 mg/kg/injection, schedule: Q04DX003 (ip), vehicle: saline with Tween-80 104 % of control | [6] 92 % of control

Cc1cc(Cl)c(C)c(Cl)c1Cl
inactive: [4] 100 % of control | dose: 100.0 mg/kg/injection, schedule: Q01DX009 (ip), vehicle: acetone 92 % of control | [12] 93 % of control | [5] 97 % of control | dose: 200.0 mg/kg/injection, schedule: Q01DX009 (ip), vehicle: acetone 95 % of control | [13] 97 % of control | dose: 400.0 mg/kg/injection, schedule: Q01DX001 (ip), vehicle: acetone 90 % of control | dose: 400.0 mg/kg/injection, schedule: Q01DX009 (ip), vehicle: acetone 95 % of control | [14] 92 % of control

NC(CCl)=NCc1ccccc1
inactive: [1] 97 % of control and 98 % of control | [2] 101 % of control and 115 % of control | dose: 25.0 mg/kg/injection, schedule: Q01DX001 (ip), vehicle: saline 98 % of control | dose: 25.0 mg/kg/injection, schedule: Q04DX002 (ip), vehicle: saline 105 % of control and 91 % of control | dose: 25.0 mg/kg/injection, schedule: Q04DX003 (ip), vehicle: saline 90 % of control | [9] 97 % of control | dose: 50.0 mg/kg/injection, schedule: Q04DX002 (ip), vehicle: saline 94 % of control and 89 % of control | [15] 97 % of control | [16] 95 % of control

Clc1ccccc1N=C1NN(c2c3ccccc3nc3ccccc23)Nc2ccccc21
inactive: [12] 94 % of control | [13] 90 % of control | [14] 87 % of control

O=C(Nc1ccccc1)P(=O)(O)c1ccccc1
inactive: dose: 62.5 mg/kg/injection, schedule: Q01DX001 (ip), vehicle: Klucel (hydroxypropylcellulose) (HPC) 102 % of control | dose: 125.0 mg/kg/injection, schedule: Q01DX001 (ip), vehicle: Klucel (hydroxypropylcellulose) (HPC) 102 % of control | dose: 250.0 mg/kg/injection, schedule: Q01DX001 (ip), vehicle: Klucel (hydroxypropylcellulose) (HPC) 92 % of control

CCN(CC)CC(O)Cn1cnc2c(N)ncnc21 (stereo not given)
inactive: [15] 104 % of control | [16] 111 % of control | [17] 93 % of control

OCCC#CCCOC1CCCCO1 (stereo not given)
inactive: [18] 93 % of control | [19] 103 % of control | [20] 103 % of control

O=[N+]([O-])c1ccc(Cl)c2ncccc12
inactive: dose: 100.0 mg/kg/injection, schedule: Q04DX003 (ip), vehicle: Klucel (hydroxypropylcellulose) (HPC) 102 % of control | dose: 200.0 mg/kg/injection, schedule: Q04DX003 (ip), vehicle: Klucel (hydroxypropylcellulose) (HPC) 98 % of control | dose: 400.0 mg/kg/injection, schedule: Q04DX003 (ip), vehicle: Klucel (hydroxypropylcellulose) (HPC) 102 % of control

CCc1nc(N[N+](=O)[O-])nc(N)c1-c1ccccc1O
inactive: dose: 50.0 mg/kg/injection, schedule: Q04DX002 (ip), vehicle: Klucel (hydroxypropylcellulose) (HPC) 97 % of control | [21] 93 % of control and 111 % of control | [22] 97 % of control | [23] 90 % of control

Nc1ccc(C(=O)N/N=C\c2cccc3ccccc23)cc1
inactive: [21] 97 % of control | [22] 90 % of control | [23] 93 % of control

COc1ccc(NC(=O)Nc2cc([N+](=O)[O-])ccc2C)c(OC)c1
inactive: [21] 92 % of control | [22] 108 % of control | [23] 92 % of control

CCCCCCCCCC(C)(O)C#CC(C)(O)CCCCCCCCC (stereo not given)
inactive: dose: 50.0 mg/kg/injection, schedule: Q01DX001 (ip), vehicle: carboxymethylcellulose (CMC) 93 % of control | dose: 50.0 mg/kg/injection, schedule: Q04DX003 (ip), vehicle: carboxymethylcellulose (CMC) 91 % of control | dose: 100.0 mg/kg/injection, schedule: Q01DX001 (ip), vehicle: carboxymethylcellulose (CMC) 95 % of control | dose: 100.0 mg/kg/injection, schedule: Q04DX003 (ip), vehicle: carboxymethylcellulose (CMC) 89 % of control | dose: 200.0 mg/kg/injection, schedule: Q01DX001 (ip), vehicle: carboxymethylcellulose (CMC) 91 % of control | dose: 200.0 mg/kg/injection, schedule: Q04DX003 (ip), vehicle: carboxymethylcellulose (CMC) 89 % of control | dose: 400.0 mg/kg/injection, schedule: Q01DX001 (ip), vehicle: carboxymethylcellulose (CMC) 100 % of control

Nc1ncc(Br)cc1Br
inactive: [10] 94 % of control | [6] 101 % of control | [11] 108 % of control | [7] 95 % of control | dose: 400.0 mg/kg/injection, schedule: Q01DX009 (ip), vehicle: saline with Tween-80 116 % of control | [8] 97 % of control

C#CC1(NC(=S)NC(=O)c2ccccc2)CCCCC1
inactive: dose: 25.0 mg/kg/injection, schedule: Q01DX009 (ip), vehicle: Klucel (hydroxypropylcellulose) (HPC) 93 % of control | dose: 50.0 mg/kg/injection, schedule: Q01DX009 (ip), vehicle: Klucel (hydroxypropylcellulose) (HPC) 94 % of control | [24] 94 % of control and 88 % of control

CC(=O)OC1CC2C(C)(C)C(=O)C=CC2(C)C2CCC3(C)C(c4ccoc4)OC(=O)C4OC43C12C (stereo not given)
inactive: dose: 100.0 mg/kg/injection, schedule: Q01DX001 (sc), vehicle: steriod suspending solution 104 % of control | dose: 200.0 mg/kg/injection, schedule: Q01DX001 (sc), vehicle: steriod suspending solution 104 % of control | dose: 400.0 mg/kg/injection, schedule: Q01DX001 (sc), vehicle: steriod suspending solution 92 % of control

C(#[C][Sb]([C]#Cc1ccccc1)[C]#Cc1ccccc1)c1ccccc1
inactive: [16] 98 % of control | [17] 106 % of control | dose: 400.0 mg/kg/injection, schedule: Q04DX003 (ip), vehicle: saline 102 % of control

CCCCSP(SCCCC)N1CCCCC1
inactive: [16] 102 % of control | [17] 98 % of control

Cc1ccc(NC(=S)N(C)C)cc1C
inactive: [24] 95 % of control | dose: 200.0 mg/kg/injection, schedule: Q01DX009 (ip), vehicle: Klucel (hydroxypropylcellulose) (HPC) 101 % of control | dose: 400.0 mg/kg/injection, schedule: Q01DX009 (ip), vehicle: Klucel (hydroxypropylcellulose) (HPC) 104 % of control

CC(C)COCCCN
inactive: dose: 10.0 mg/kg/injection, schedule: Q01DX009 (ip), vehicle: saline 95 % of control | dose: 50.0 mg/kg/injection, schedule: Q01DX009 (ip), vehicle: saline 95 % of control

COc1ccc2cc1Oc1ccc(cc1)CC1c3cc(c(OC)cc3CCN1C)Oc1c(OC)c(OC)c(OC)c3c1C(C2)N(C)CC3 (stereo not given)
inactive: [21] 102 % of control | [22] 91 % of control | [23] 94 % of control

Nc1ccc2nc3c4ccccc4c(O)n3nc2c1
inactive: [18] 106 % of control | [19] 102 % of control | [20] 102 % of control

From PubChem BioAssay AID248 (DTP/NCI, 2004)
